Experimental data from patent EP0552417B1, “Cyclic peptides and use thereof” (priority 1991, dated 1993).
Where two headings read alike, the source gives them in different places. Non-standard residues stand in square brackets, D forms with d. Residues, ends and D or L forms follow the SMILES beside them. Hyp = O=C(O)[C@@H]1C[C@@H](O)CN1

How the values were obtained:
[1] = target: T1, endothelin receptor A (ETA) (Sus scrofa, UniProt Q29010); assay: Assay of affinity for receptor (1): binding activity on ETA receptor, 125I-labeled endothelin-1, porcine heart membrane fraction; set-up: key: relative specific activity; reference cyclic pentapeptide ETA binding = 1.0; settings: specific activity, taking the binding activity of control cyclo[-D-Glu-Ala-D-aIle-Leu-D-Trp-] on receptor A as 1.0, 25°C, 1 hour
T1 construct: A membrane fraction prepared from the porcine heart; from tissue; host or cells: porcine heart membrane fraction
T1 sequence (Q29010 21-427): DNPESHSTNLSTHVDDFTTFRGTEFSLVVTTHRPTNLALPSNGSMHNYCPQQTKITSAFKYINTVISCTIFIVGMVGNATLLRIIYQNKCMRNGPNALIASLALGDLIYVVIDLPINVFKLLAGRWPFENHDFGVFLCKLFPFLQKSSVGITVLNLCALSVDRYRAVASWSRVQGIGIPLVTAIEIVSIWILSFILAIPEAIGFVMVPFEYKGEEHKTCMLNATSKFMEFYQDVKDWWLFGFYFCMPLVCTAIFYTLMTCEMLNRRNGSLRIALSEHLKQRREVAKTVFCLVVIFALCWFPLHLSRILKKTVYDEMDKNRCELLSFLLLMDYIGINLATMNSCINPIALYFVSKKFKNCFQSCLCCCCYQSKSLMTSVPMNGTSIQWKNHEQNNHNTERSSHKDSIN
Description: Assay of Affinity for Receptor (1) ... Binding Activity on ETA Receptor
A membrane fraction prepared from the porcine heart was diluted to 0.15 mg/ml by using a buffer solution for assay, and 100 µl of the resulting suspension of the membrane fraction was poured into each assay tube to use for assay. To this suspension of the membrane fraction was added 2 µl of 5 nM ^125I-labeled endothelin-1 solution. Further, 3 µl of a test peptide solution was added thereto, followed by incubation at a temperature of 25°C for 1 hour. Then, the resulting suspension was diluted with 900 µl of the buffer solution for assay cooled with ice, and thereafter separated into a supernatant and a precipitate by centrifugation at 12,000 X g for 10 minutes. Cell membranes and an endothelin receptor A (ETA) embedded therein were contained in the precipitate, and radioactive iodine-labeled endothelin combined with the receptor was also recovered in the precipitate. Accordingly, the amount of radioactive iodine-labeled endothelin combined with the endothelin receptor A (ETA) was determined by measuring the amount of radioactive iodine contained in the precipitate with a gamma-ray counter. The cyclic pentapeptide described in Japanese Patent Application No. 2-413328/1990, cyclo[-D-Glu-Ala-D-aIle-Leu-D-Trp-], was used as a control compound. The numerical value of ETA shown in Table 1 is the value of specific activity, taking the binding activity of this cyclic pentapeptide on the receptor A as 1.0. The binding activity (IC50) of this cyclic pentapeptide on the ETA receptor is 2x10^-6 M.

[2] = target: T2, endothelin receptor B (ETB) (Bos taurus, UniProt P28088); assay: Assay of affinity for receptor (2): binding activity on ETB receptor *1, 125I-labeled endothelin-1, bovine brain membrane fraction; settings: specific activity, taking the binding activity of the compound of Example 8 on receptor B as 100, 25°C, 1 hour
T2 construct: A membrane fraction prepared from the bovine brain; from tissue; host or cells: bovine brain membrane fraction
T2 sequence (P28088 27-441): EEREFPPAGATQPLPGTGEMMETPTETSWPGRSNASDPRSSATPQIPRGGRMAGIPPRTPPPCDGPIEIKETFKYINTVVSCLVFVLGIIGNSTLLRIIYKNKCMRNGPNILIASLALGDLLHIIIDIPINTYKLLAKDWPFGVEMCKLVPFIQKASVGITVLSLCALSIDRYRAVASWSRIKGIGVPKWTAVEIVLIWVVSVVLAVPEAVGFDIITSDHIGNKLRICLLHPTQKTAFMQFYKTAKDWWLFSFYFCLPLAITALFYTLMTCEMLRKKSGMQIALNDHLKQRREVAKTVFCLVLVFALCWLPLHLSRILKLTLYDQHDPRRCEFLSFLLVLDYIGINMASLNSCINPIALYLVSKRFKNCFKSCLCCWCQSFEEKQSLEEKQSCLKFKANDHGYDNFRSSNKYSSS
Description: Assay of Affinity for Receptor (2) ... Binding Activity on ETB Receptor *1
A membrane fraction prepared from the bovine brain was diluted to 0.15 mg/ml by using a buffer solution for assay, and 100 µl of the resulting suspension of the membrane fraction was poured into each assay tube to use for assay. To this suspension of the membrane fraction was added 2 µl of 5 nM ^125I labeled endothelin-1 solution. Further, 3 µl of a test peptide solution was added thereto, followed by incubation at a temperature of 25°C for 1 hour. Then, the resulting suspension was diluted with 900 µl of the buffer solution for assay cooled with ice, and thereafter separated into a supernatant and a precipitate by centrifugation at 12,000 X g for 10 minutes. Cell membranes and an endothelin receptor B (ETB) embedded therein were contained in the precipitate, and radioactive iodine-labeled endothelin bound to the receptor was also recovered in the precipitate. Accordingly, the amount of radioactive iodine-labeled endothelin bound to the endothelin receptor B (ETB) was determined by measuring the amount of radioactive iodine contained in the precipitate with a gamma-ray counter. The numerical value of ETB shown in Table 1 is the value of specific activity, taking the binding activity of the compound of Example 8 on the receptor B as 100.

ETB = ETB radio receptor assay *2, 125I-endothelin-1, guinea pig kidney crude membrane fraction; type: binding, Guinea pigs; settings: relative activity, 37 °C, 90 minutes
Description: ETB Radio Receptor Assay *2
In the endothelin radio receptor assay, guinea pigs' kidneys were used. Guinea pigs (Std Hartrey, male 250 g, Japan SLC Ltd.) were made to have a cerebral concussion and sacrificed by bleeding from carotid arteries to pick up the kidneys and removed fat therefrom to prepare the kidneys. The obtained kidneys were sliced and homogenized by politron homogenizer in 20 ml of 50 mM Tris-HCl buffer [pH 7.4; 20 mM NaHCO3, 0.1 mM PMSF (Phenylmethylsulfonyl Fluoride), 1 mM EDTA (Ethylenediaminetetraacetic acid)] per one kidney. The homogenized kidney was applied to a centrifugation at 1,000 x g for 15 minutes and the supernatant was further applied to a centrifugation for 20 minutes at 30,000 x g. The resulting precipitate was twice washed with 50 mM Tris-HCl buffer (pH 7.4) containing 0.1 mM PMSF, 1 mM EDTA. The resultant was stored at -80 °C as a crude receptor membrane fraction and was used as the suspension in the following buffer when necessary.
740 Bq of ^125I-endothelin-1 (81.4 TBq/mmol, Du Pont, USA) as a radio ligand, the crude membrane fraction (2.1 µg protein) and samples were added to the following buffer. The reaction was performed at 37 °C, for 90 minutes in 0.2 ml of the buffer [50 mM Tris-HCl buffer (pH 7.4) containing 0.1 mM PMSF, 1 mM EDTA, 0.2% bovine serum albumin].
The reaction was stopped by fast filtration on a glass filter (GF/B, Wattman, USA) by Cell Harvestor (290 PHD, Cambridge-Technology, Great Britain), and the filter was three times washed with 50 mM Tris-HCl buffer (pH 7.4). Radio activity remained on the filter was assayed by a gamma counter.

[3] = amide bond, 18-membered ring, DMF, 4 steps
[4] = HONB/DCC preactivation, TEA, 5.0 mM
[5] = HONB ester (HONB/DCC preactivation)/TEA, 5.0 mM
[6] = HONB/DCC (preformed ONB ester), TEA, 5.0 mM
[7] = HONB/DCC (preactivation), HCl/dioxane, TEA, 5.0 mM

## CC(C)C[C@@H]1NC(=O)[C@@H](CC(C)C)NC(=O)[C@H](CC(=O)O)NC(=O)[C@H](C)NC(=O)[C@@H](CC(=O)O)NC(=O)[C@@H](Cc2c[nH]c3ccccc23)NC1=O [Example 1, cyclo[-D-Asp-Ala-Asp-D-Leu-Leu-D-Trp-]] (cyclo(AD[dL]L[dW][dD]))
[1]
  Binding Activity on ET Receptor (R. act.) ETA: 9.7
[2]
  Binding Activity on ET Receptor (R. act.) ETB*1: 13
ETB
  Binding Activity on ET Receptor (R. act.) ETB*2: 2.0

## CC(C)C[C@@H]1NC(=O)[C@@H](CC(C)C)NC(=O)[C@H](CC(=O)O)NC(=O)[C@@H]2CCCN2C(=O)[C@@H](CC(=O)O)NC(=O)[C@@H](Cc2c[nH]c3ccccc23)NC1=O [Example 9, cyclo[-D-Asp-Pro-Asp-D-Leu-Leu-D-Trp-]] (cyclo(D[dL]L[dW][dD]P))
[1]
  Binding Activity on ET Receptor (R. act.) ETA: 56
[2]
  Binding Activity on ET Receptor (R. act.) ETB*1: 140
ETB
  Binding Activity on ET Receptor (R. act.) ETB*2: 67

## CC(C)C[C@@H]1NC(=O)[C@@H](CC(C)C)NC(=O)[C@H](CC(=O)O)NC(=O)[C@@H]2C[C@@H](O)CN2C(=O)[C@@H](CC(=O)O)NC(=O)[C@@H](Cc2c[nH]c3ccccc23)NC1=O [Example 14, cyclo[-D-Asp-Hyp-Asp-D-Leu-Leu-D-Trp-]] (cyclo(D[dL]L[dW][dD][Hyp]))
[1]
  Binding Activity on ET Receptor (R. act.) ETA: 70
[2]
  Binding Activity on ET Receptor (R. act.) ETB*1: 160
ETB
  Binding Activity on ET Receptor (R. act.) ETB*2: 120

## CC(C)C[C@@H]1NC(=O)[C@@H](CC(C)C)NC(=O)[C@H](CC(=O)O)NC(=O)[C@H](Cc2c[nH]c3ccccc23)NC(=O)[C@@H](CC(=O)O)NC(=O)[C@@H](Cc2cn(C)c3ccccc23)NC1=O [Example 95, Cyclo[-D-Asp-Trp-Asp-D-Leu-Leu-D-Trp(Me)-]]
[1]
  Binding Activity on ET Receptor (R. act.) ETA: 110
ETB
  Binding Activity on ET Receptor (R. act.) ETB*2: 330

## H-Acbu-Leu-dTrp-dAsp(OBzl)-Trp-Asp(OBzl)-ONB
[3]; the molecule shown is the open-chain precursor, HONB/DCC (preformed ONB ester), TEA, 5.0 mM
  ring closure, yield after HPLC: 10.4%

## cyclo[-D-Asp-Ala-Asp-D-Leu-Leu-D-Trp-]
[3]; [4]
  ring closure, yield after HPLC: 18.2%

## cyclo[-D-Asp-Ala-D-Asp-D-Leu-Leu-D-Trp-]
[3]; [4]
  ring closure, yield after HPLC: 15.3%

## cyclo[-D-Asp-Ala-D-Glu-D-Leu-Leu-D-Trp-]
[3]; [4]
  ring closure, yield after HPLC: 10.8%

## cyclo[-D-Asp-Ala-Glu-D-Leu-Leu-D-Trp-]
[3]; [4]
  ring closure, yield after HPLC: 24.1%

## cyclo[-D-Asp-Asn(CH2CH2-Ind)-Asp-D-Leu-Leu-D-Trp-]
[3]; HONB/DCC (preactivation), HCl/dioxane, TEA, 3.2 mM
  ring closure, yield after HPLC: 19.4%

## cyclo[-D-Asp-Asn(CH2CH2-Ind)-Asp-D-Thg(2)-Leu-D-Trp-]
[3]; HONB/DCC preactivation, HCl, TEA, 5.0 mM
  ring closure, yield after HPLC: 9.5%

## cyclo[-D-Asp-Asn(CH2CH2Ph)-Asp-D-Leu-Leu-D-Trp-]
[3]; HONB/DCC (preactivation), HCl/dioxane, TEA, 3.5 mM
  ring closure, yield after HPLC: 24.1%

## cyclo[-D-Asp-Asn(CH2Ph)-Asp-D-Leu-Leu-D-Trp-]
[3]; HONB ester (HONB/DCC preactivation)/TEA, 3.5 mM
  ring closure, yield after HPLC: 23.8%

## cyclo[-D-Asp-Asp-Ala-D-Leu-Leu-D-Trp-]
[3]; [5]
  ring closure, yield after HPLC: 17.8%

## cyclo[-D-Asp-Gln(Bzl)-Asp-D-Thg(2)-Leu-D-Trp-]
[3]; HONB/DCC preactivation, HCl, TEA, 5.1 mM
  ring closure, yield after HPLC: 8.8%

## cyclo[-D-Asp-Glu-Ala-D-Leu-Leu-D-Trp-]
[3]; [5]
  ring closure, yield after HPLC: 20.6%

## cyclo[-D-Asp-Gly-Ala-D-Leu-Leu-D-Trp-]
[3]; HONB ester (HONB/DCC preactivation)/TEA, 5.9 mM
  ring closure, yield after HPLC: 19.2%

## cyclo[-D-Asp-Hyp(Bzl)-Asp-D-Thg(2)-Leu-D-Trp-]
[3]; [6]
  ring closure, yield after HPLC: 5.7%

## cyclo[-D-Asp-Orn(COCH2-Ind)-Asp-D-Leu-Leu-D-Trp-]
[3]; HONB/DCC (preformed ONB ester), TEA, 4.9 mM
  ring closure, yield after HPLC: 12.5%

## cyclo[-D-Asp-Orn(COCH2CH2Ph)-Asp-D-Leu-Leu-D-Trp-]
[3]; HONB/DCC (preformed ONB ester), TEA, 5.1 mM
  ring closure, yield after HPLC: 40.9%

## cyclo[-D-Asp-Orn(COCH2Ph)-Asp-D-Leu-Leu-D-Trp-]
[3]; HONB/DCC (preformed ONB ester), TEA, 4.7 mM
  ring closure, yield after HPLC: 2.9%

## cyclo[-D-Asp-Orn(COPh)-Asp-D-Leu-Leu-D-Trp-]
[3]; [6]
  ring closure, yield after HPLC: 48.1%

## cyclo[-D-Asp-Pro-Asp-D-Leu-Leu-D-Trp-]
[3]; HONB ester (HONB/DCC preactivation)/TEA, 5.1 mM
  ring closure, yield after HPLC: 47.4%

## cyclo[-D-Asp-Trp-Asp-D-Leu-Leu-D-Trp-]
[3]; [5]
  ring closure, yield after HPLC: 52.9%

## cyclo[-D-Asp-Trp-Asp-D-Thg(2)-Leu-D-Trp-]
[3]; HONB/DCC (preactivation), HCl/dioxane, TEA, 5.1 mM
  ring closure, yield after HPLC: 4.6%

## cyclo[-D-Asp-Trp-Asp-D-tLeu-Leu-D-Trp-]
[3]; [7]
  ring closure, yield after HPLC: 42.8%

## cyclo[-D-Asp-Trp-Asp-D-γMeLeu-Leu-D-Trp-]
[3]; [7]
  ring closure, yield after HPLC: 51.5%
